Laboratory results published in ChEMBL document CHEMBL1201862, “PubChem BioAssay data set” (2004).
Active and inactive are the calls of the source.

Assays:
[1] = target: T1, Sphingosine 1-phosphate receptor 2 (Homo sapiens, UniProt O95136); test: Dose Response Cell Based Assay for Agonists of the S1P2 Receptor of Purchased Analogues. [Related pubchem assays: 729, 843, 854, 736 ]; assay type: functional
[2] = target: Peroxisome proliferator-activated receptor gamma/Nuclear receptor corepressor 2 (Homo sapiens, UniProt P37231+Q9Y618); test: Counterscreen for NR2E3 inverse agonists: TR-FRET-based biochemical high throughput dose response assay to identify inverse agonists of the interaction between peroxisome proliferator-activated receptor gamma (PPARg) and nuclear receptor co-repressor 2 (NCOR2).; assay type: functional
[3] = target: Photoreceptor-specific nuclear receptor (Homo sapiens, UniProt Q9Y5X4); test: ligands suppressing NR2E3 nuclear receptor activity – biochemical, TR-FRET, dose response (AID 463256); assay type: functional
[4] = target: Peroxisome proliferator-activated receptor gamma/Nuclear receptor coactivator 1 (Homo sapiens, UniProt P37231); test: (§1) TR-FRET dose response biochemical High Throughput Screening assay for agonists of the steroid receptor coactivator 1 (SRC-1) recruitment by the peroxisome proliferator-activated receptor gamma (PPAR gamma): non-selective agonists. [Related pubchem assays (depositor defined):AID1300, AID1808, AID504735, AID631]; assay type: protein assay
[5] = target: Peroxisome proliferator-activated receptor gamma/Nuclear receptor coactivator 3 (Homo sapiens, UniProt P37231); test: as §1, with “3 (SRC-3)” for “1 (SRC-1)”, “assays: 1301 (Confirmation screen.), 1048 (Primary screen.)]” for “assays (depositor defined):AID1300, AID1808, AID504735, AID631]”; assay type: functional
[6] = HPDE-C7 pancreatic duct cell viability loss – fluorescence, HTS (AID 430); assay type: functional, cell-based; conditions: Homo sapiens
[7] = M. tuberculosis growth inhibition, HTS (AID 449762); assay type: functional
[8] = microbe, parasite or virus in culture; assay type: functional; conditions: Mycobacterium tuberculosis
[9] = viability loss of HPDE-C7K cells – cell-based, fluorescence, HTS, primary screen (AID 431); assay type: functional; conditions: Homo sapiens
[10] = target: Peroxisome proliferator-activated receptor gamma/Nuclear receptor coactivator 2 (Homo sapiens, UniProt P37231); test: TR-FRET dose response biochemical High Throughput Screening assay for agonists of the steroid receptor coactivator 2 (SRC-2) recruitment by the peroxisome proliferator-activated receptor gamma (PPAR gamma): non-selective agonists. [Related pubchem assays: 1297, 1032 ]; assay type: functional
[11] = target: T2, Replicative DNA helicase DnaB (Mycobacterium tuberculosis, UniProt P9WMR3); test: DnaB intein splicing inhibitors, dose response, biochemical, cell-free fluorescence (AID 449749); assay type: functional
T2 sequence (P9WMR3 whole entry): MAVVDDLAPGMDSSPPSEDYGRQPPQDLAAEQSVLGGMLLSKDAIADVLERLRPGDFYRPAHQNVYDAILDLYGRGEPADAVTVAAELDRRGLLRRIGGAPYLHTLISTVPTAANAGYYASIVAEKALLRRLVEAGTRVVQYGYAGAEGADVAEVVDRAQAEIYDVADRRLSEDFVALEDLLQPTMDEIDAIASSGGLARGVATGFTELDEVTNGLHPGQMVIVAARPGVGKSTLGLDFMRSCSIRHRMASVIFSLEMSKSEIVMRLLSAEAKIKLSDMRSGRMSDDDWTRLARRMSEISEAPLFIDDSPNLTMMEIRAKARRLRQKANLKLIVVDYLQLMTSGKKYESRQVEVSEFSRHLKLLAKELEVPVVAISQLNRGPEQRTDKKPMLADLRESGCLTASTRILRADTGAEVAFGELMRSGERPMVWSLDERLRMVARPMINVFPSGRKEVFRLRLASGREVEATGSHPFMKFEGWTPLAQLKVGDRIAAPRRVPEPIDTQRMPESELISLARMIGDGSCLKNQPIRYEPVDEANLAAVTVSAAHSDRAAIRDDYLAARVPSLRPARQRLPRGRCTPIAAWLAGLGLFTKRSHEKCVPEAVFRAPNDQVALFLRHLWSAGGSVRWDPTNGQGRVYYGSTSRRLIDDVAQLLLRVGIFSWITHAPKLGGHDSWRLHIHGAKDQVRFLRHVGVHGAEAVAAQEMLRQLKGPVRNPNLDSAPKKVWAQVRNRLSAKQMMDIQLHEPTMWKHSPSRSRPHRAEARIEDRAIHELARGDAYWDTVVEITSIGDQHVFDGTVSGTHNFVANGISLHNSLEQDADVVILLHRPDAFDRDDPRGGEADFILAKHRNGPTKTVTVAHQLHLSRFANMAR

Protein RecA = target: T3, Protein RecA (Mycobacterium tuberculosis, UniProt P9WHJ3); test: Fluorescence Cell-Free Homogeneous Dose Retest to Identify Inhibitors of RecA-Intein Splicing Activity. [Related pubchem assays (depositor defined):AID2097, AID2223, AID489010, AID492950]; assay type: functional
T3 sequence (P9WHJ3 whole entry): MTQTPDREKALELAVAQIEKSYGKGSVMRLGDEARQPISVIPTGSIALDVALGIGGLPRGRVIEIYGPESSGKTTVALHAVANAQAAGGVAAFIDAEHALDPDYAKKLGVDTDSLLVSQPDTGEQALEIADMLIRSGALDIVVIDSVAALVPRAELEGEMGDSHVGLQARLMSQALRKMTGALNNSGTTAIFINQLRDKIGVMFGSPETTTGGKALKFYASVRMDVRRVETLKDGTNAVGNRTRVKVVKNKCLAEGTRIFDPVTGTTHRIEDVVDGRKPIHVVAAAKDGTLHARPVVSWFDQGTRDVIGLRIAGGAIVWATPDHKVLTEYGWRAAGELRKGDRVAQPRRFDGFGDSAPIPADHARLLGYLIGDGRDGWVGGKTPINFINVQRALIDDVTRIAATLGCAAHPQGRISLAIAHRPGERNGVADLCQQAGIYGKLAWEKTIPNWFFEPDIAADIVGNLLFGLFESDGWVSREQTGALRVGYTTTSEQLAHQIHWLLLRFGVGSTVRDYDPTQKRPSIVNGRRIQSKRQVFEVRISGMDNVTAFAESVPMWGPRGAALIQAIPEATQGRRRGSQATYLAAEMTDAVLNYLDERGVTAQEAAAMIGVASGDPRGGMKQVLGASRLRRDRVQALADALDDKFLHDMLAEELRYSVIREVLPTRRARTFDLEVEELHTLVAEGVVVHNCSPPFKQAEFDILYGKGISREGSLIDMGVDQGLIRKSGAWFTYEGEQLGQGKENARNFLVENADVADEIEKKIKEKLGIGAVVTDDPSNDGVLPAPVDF

Fatty acid synthase [12] = target: T4, Fatty acid synthase (Homo sapiens, UniProt P49327); test: inhibition of human FAS-TE enzyme activity – biochemical, endpoint fluorescence intensity, uHTS hits, dose response (AID 624327); assay type: functional;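 further: fluorescence from hydrolysis of an O-methyl fluorescein acyl ester substrate by the enzyme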
Fatty acid synthase [13] = target: T4, Fatty acid synthase; test: inhibition of human FAS-TE enzyme activity – biochemical, kinetic fluorescence intensity, dose response (AID 624326); assay type: functional;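 further: rate of fluorescence rise from hydrolysis of a fluorogenic O-methyl fluorescein ester substrate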
Bcl-2-related protein A1 [14] = target: T5, Bcl-2-related protein A1 (Mus musculus, UniProt Q07440); test: small-molecule antagonists of Bfl-1/BH3 interaction – biochemical, TR-FRET, mouse Bfl-1, confirmation (AID 621);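 further: TR-FRET binding of GST-Bfl-1 to FITC-labelled Bid peptide via terbium antibody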
T5 sequence (Q07440 whole entry): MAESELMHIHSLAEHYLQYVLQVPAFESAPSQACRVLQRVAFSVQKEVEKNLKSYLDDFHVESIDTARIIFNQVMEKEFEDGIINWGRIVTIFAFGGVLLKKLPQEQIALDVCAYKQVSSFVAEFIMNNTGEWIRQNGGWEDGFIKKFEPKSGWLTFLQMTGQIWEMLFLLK

Bcl-2-related protein A1 [15] = target: T5, Bcl-2-related protein A1; test: Bfl-1 binding inhibitors, SAR follow-up, biochemical, fluorescence polarization (AID 1070)
[16] = A549 cell cytotoxicity, dose response, cytotoxicity control, plate reader, cherry-pick, antagonist series (AID 743412); assay type: functional, cell-based
[17] = toxicity toward HepG2 liver cells – cell-based, plate reader, cherry-pick, antagonist series, cytotoxicity control, dose response (AID 743416); assay type: functional
[18] = blockers of bursicon-stimulated LGR2 cAMP reporter – cell-based, HEK293, CRE-luciferase reporter, cherry pick, set 2, dose response (AID 743343); assay type: functional;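 further: transfected cells were stimulated with diluted bursicon conditioned medium after compound addition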
[19] = blockade of melanocortin 4 receptor signaling – cell-based, plate reader, cherry pick, counter-screen for LGR2 antagonist project, dose response (AID 743444); assay type: functional;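 further: transfected HEK 293 cells stimulated with alpha-MSH peptide; potency of inhibitors of the alpha-MSH evoked signal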
[20] = target: T1, Sphingosine 1-phosphate receptor 2; test: Dose Response Cell-Based Assay for Agonists of the Sphingosine 1-Phosphate Receptor 2 (S1P2): Purchased Analogues. [Related pubchem assays: 1192, 373, 439 ]; assay type: functional
[21] = target: Sphingosine 1-phosphate receptor 1 (Homo sapiens, UniProt P21453); test: Dose Response Cell-Based Assay for Agonists of the Sphingosine 1-Phosphate Receptor 1 (S1P1): Purchased Analogues. [Related pubchem assays: 1192, 373, 439 ]; assay type: functional
[22] = target: Sphingosine 1-phosphate receptor 3 (Homo sapiens, UniProt Q99500); test: Dose Response Cell-Based Assay for Agonists of the Sphingosine 1-Phosphate Receptor 3 (S1P3): Purchased Analogues. [Related pubchem assays: 373, 439 ]; assay type: functional
Sequence of Sphingosine 1-phosphate receptor 3 (Q99500 whole entry): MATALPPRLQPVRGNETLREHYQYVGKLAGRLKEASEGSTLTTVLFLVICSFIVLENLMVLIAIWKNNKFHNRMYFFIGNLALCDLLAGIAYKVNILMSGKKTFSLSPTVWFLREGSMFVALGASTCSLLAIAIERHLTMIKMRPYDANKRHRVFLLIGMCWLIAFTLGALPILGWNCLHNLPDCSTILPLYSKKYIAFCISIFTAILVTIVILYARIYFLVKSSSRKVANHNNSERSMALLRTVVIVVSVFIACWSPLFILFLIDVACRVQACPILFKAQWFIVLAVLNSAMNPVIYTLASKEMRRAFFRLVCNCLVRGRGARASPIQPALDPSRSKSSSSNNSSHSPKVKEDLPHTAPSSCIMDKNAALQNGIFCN

T4 sequence (P49327 whole entry): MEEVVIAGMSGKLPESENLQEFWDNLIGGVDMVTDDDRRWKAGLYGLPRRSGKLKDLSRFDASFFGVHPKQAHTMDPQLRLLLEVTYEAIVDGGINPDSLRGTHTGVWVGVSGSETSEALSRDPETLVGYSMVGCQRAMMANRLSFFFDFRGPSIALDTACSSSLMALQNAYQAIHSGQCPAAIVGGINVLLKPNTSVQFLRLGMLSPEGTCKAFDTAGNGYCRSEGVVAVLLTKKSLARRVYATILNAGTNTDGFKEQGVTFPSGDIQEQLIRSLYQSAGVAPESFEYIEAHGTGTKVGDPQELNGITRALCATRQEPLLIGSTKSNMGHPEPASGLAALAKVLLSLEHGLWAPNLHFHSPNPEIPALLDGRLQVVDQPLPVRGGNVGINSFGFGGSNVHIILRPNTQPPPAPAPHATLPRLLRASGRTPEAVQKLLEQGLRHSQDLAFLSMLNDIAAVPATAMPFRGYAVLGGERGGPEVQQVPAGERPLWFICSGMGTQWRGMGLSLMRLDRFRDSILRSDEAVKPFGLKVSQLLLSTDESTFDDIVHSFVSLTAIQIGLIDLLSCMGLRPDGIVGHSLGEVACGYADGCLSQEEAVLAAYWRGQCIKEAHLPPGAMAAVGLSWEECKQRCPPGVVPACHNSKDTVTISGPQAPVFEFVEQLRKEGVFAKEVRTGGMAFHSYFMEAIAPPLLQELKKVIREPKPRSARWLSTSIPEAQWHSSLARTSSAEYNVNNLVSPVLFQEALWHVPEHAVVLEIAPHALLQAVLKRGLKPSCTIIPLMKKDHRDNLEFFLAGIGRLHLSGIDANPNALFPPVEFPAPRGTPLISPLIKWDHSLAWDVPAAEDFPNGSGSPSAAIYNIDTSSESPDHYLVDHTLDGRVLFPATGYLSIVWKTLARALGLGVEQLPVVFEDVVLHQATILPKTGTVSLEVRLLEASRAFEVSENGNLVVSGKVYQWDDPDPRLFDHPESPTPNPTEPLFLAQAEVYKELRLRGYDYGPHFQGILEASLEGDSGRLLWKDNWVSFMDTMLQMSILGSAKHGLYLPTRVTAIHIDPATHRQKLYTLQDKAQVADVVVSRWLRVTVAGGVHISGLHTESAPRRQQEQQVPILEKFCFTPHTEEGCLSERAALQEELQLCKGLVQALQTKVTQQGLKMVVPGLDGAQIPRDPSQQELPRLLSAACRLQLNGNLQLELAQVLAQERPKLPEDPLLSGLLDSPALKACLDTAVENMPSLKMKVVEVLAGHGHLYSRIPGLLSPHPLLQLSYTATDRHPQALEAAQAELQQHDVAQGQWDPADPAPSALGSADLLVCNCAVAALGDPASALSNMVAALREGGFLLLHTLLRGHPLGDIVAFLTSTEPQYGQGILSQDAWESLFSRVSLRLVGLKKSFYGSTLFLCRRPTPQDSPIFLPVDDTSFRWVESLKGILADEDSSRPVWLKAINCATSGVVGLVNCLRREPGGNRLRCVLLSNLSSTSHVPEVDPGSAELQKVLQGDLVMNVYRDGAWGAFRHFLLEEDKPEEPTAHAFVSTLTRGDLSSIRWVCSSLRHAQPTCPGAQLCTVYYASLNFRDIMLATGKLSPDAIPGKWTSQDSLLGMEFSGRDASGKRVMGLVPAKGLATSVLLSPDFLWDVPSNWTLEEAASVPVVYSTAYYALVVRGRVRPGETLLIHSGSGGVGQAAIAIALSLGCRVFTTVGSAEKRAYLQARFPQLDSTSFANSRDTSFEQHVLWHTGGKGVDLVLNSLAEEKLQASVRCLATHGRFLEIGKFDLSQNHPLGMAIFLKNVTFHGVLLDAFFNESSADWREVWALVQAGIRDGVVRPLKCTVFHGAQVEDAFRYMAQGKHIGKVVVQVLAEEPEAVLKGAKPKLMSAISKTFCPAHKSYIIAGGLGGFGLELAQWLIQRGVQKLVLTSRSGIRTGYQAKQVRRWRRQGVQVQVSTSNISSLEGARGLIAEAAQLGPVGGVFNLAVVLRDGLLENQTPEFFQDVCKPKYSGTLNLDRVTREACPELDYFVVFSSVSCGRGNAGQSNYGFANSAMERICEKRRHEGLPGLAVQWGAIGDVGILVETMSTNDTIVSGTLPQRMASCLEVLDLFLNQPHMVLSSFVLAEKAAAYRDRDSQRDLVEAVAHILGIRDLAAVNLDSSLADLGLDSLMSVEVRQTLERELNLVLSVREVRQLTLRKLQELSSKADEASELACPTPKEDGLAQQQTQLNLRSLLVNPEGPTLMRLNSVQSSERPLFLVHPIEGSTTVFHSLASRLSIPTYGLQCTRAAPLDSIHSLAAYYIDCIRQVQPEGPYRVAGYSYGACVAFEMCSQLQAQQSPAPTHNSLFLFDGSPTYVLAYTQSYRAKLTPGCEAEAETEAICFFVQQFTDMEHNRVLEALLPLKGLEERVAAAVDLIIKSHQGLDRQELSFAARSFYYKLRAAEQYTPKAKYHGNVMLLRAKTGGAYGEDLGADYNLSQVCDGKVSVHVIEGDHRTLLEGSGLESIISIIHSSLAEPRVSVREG
T1 sequence (O95136 whole entry): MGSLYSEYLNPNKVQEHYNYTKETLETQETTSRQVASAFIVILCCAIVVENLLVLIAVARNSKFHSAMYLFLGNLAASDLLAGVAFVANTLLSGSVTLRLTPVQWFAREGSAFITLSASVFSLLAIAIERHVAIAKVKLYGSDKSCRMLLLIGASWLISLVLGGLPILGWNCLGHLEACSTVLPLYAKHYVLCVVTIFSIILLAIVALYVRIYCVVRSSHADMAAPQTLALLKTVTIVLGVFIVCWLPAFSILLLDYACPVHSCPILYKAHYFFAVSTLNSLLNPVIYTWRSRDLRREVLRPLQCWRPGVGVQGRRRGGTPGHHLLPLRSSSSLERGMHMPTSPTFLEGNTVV
Sequence of Sphingosine 1-phosphate receptor 1 (P21453 whole entry): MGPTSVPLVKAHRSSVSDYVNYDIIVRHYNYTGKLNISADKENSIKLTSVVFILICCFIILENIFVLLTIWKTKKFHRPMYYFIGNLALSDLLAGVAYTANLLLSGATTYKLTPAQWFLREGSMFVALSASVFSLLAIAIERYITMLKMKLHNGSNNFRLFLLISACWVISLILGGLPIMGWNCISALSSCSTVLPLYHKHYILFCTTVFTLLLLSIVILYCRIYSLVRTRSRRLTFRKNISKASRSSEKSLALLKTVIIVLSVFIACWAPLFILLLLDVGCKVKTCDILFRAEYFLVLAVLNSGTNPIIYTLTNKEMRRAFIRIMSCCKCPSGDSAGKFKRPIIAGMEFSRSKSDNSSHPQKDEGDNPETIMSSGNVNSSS
Sequence of Photoreceptor-specific nuclear receptor (Q9Y5X4 whole entry): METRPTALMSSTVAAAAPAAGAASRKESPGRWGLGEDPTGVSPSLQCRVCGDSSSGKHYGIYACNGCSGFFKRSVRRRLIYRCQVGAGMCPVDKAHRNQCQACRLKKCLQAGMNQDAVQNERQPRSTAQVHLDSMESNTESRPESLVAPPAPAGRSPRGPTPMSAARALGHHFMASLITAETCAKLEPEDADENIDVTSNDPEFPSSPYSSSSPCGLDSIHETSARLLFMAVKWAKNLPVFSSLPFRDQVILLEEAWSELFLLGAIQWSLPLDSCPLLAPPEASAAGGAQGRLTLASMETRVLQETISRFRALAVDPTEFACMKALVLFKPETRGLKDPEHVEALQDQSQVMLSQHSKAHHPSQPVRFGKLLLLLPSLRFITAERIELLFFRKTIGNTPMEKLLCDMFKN

Structure (SMILES): Cc1cc(C(=O)CN(C)CC(=O)NC2CC2)c(C)n1Cc1ccccc1
- EC50 [1]: > 30 µM (not active)

Structure (SMILES): CC(C)(C)NC(=O)CN(Cc1ccco1)C(=O)CCC(=O)Nc1nccs1
- IC50 [2]: 32.7 µM (not active)
- IC50 [3]: > 39.8 µM (not active)

Structure (SMILES): O=C(Sc1nnc(-c2ccccc2)o1)N1c2ccccc2Sc2ccccc21
- EC50 [4]: 34.9 µM (inactive)
- EC50 [5]: > 79.4 µM (not active)
- EC50 [6]: 5.48 µM (active)
- IC50 [7]: > 100 µM (active)
- CC50 [8]: > 40 µM (active)
- EC50 [9]: 6.64 µM (active)
- EC50 [10]: 20.8 µM (not active)
- AC50 [11]: 1.25 µM (active)
- EC50 (Protein RecA): 0.804 µM (active)
- IC50 (Fatty acid synthase [12]): 10.4 µM (active)
- IC50 (Fatty acid synthase [13]): 16.3 µM (active)

Structure (SMILES): Fc1ccc(-n2nnc(-c3cnc4ccccc4c3)n2)cc1
- IC50 (Bcl-2-related protein A1 [14]): > 100 µM (not active)
- IC50 (Bcl-2-related protein A1 [15]): > 100 µM (not active)
- AC50 [16]: 39.5 µM (active)
- AC50 [17]: > 52 µM (inactive)
- AC50 [18]: 1.23 µM (active)
- AC50 [19]: 2.15 µM (active)

Structure (SMILES): COc1ccc(-c2n[nH]c(SCC(=O)N(C3CCCCC3)C3CCCCC3)n2)cc1
- EC50 [20]: > 10 µM (not active)
- EC50 [21]: > 50 µM (not active)
- EC50 [22]: > 50 µM (not active)
